Assay results from patent publication US10428336B2, “Method for modulating plant growth” (The Australian National University, priority 2013, dated 2019).
Square brackets hold non-standard residues; d marks the D form. Ends that are not written are not given here. Hyp = O=C(O)[C@@H]1C[C@@H](O)CN1

Experiments:
[1] = test system: M. truncatula roots; experiment: Exogenous application of synthetic CEP peptides to M. truncatula roots; format: in vivo, Medicago truncatula; conditions: synthetic ligand applied to roots
Description: The CEP peptides were synthesized at the Biomolecular Resource Facility, The Australian National University. The 15 amino acid (aa) peptides corresponding to the conserved domains of MtCEP1 (AFQHypTTPGNSHypGVGH and EFQKTNPGHSHypGVGH—SEQ ID Nos: 451 and 452 respectively—where Hyp indicates hydroxy proline residue) and M. hapla MhCEP2 (AFRHypTAPGHSHypGVGH; SEQ ID NO: 453) were synthesized and validated as previously described in Djordjevic M A, et al. (2011), “Border sequences of Medicago truncatula CLE36 are specifically cleaved by endoproteases common to the extracellular fluids of Medicago and soybean”, J Exp Bot 62(13):4649-4659. The root length of wild-type plants was measured four days after transfer to Fåhraeus-medium containing the synthetic peptide. For the hormone assays, A17 plants were grown on Fåhraeus-medium for 10 days before transferring to Fåhraeus-medium containing 10^−6 M of the respective phytohormones; 1-aminocyclopropane-1-carboxylic acid (ACC), 6-benzylaminopurine (BAP), gibberellic acid (GA), synthetic analog of strigolactone (GR24), methyl jasmonate (MeJA) and 1-naphthaleneacetic acid (NAA).

[2] = test system: Arabidopsis root growth; conditions: synthetic 15 amino acid peptide at 10^−6 M to 10^−7 M; cited from earlier work
[3] = test system: Brachypodium distachyon BD21; experiment: Shoot growth of B. distachyon in layered agar medium containing CEP peptide; format: in vivo; conditions: 16 day old plants, 1 μM peptide in medium with barrier; for shoot length: vs no peptide controls, ANOVA
Experimental: Brachypodium. distachyon BD21 seeds were sterilised by washing in 80% ethanol for 1 minute, followed by shaking in 50 ml of 10% stock sodium hypochlorite (Northfork) with 200 μl of Triton X-100 (per 50 mL) for 5 minutes, before rinsing three times in sterile water. Seeds were then stratified for 3 days in the dark at 4° C. to induce synchronized germination. Plants were grown at 21° C. on a 16/8 h light/dark cycle in a constant environment walk-in cabinet (100 μmol/m^−2/s^−2).
Murashige and Skoog basal medium (Sigma-Aldrich Corporation, St. Louis, USA) was prepared (2.2 g/L, sterile RO water), 10% MES buffer added, and the pH adjusted to 5.7 using 1 M KOH. Falcon tubes (BD Biosciences, Australia; 50 mL max volume) containing two agar layers were prepared using the following ranges of agar concentrations: 0.2%, 0.4%, 0.5%, 0.8%, 1.0% for soft top layer and 0.5%, 1.0%, 1.5%, 2.0%, 2.5%, 3.0% and 4.0% for hard bottom layer. Type-M agar (Sigma-Aldrich Corporation) was used in all experiments. The hard layers contained 15 mL of agar and the (upper) soft layers contained 10 mL of agar. Seeds were placed one per falcon tube for root assays, with embryos facing away from the media.
Synthetic CEP peptides corresponding to those predicted to be the final products of the BdCEP1 and AtCEP5 coding sequences (SEQ ID NOs: 483 and 11, respectively) were prepared (but the BdCEP1 peptide was synthesized missing the first two amino acids, and designated as BdCEP3a in FIGS. 16 and 17) and added to molten media (60° C.) to a final concentration of 1μM.
Tubes were set up with optimal agar concentrations of 0.5% for soft top layer and 2.5% for hard bottom layer which induced a strong mechanical response in untreated plants. A layered agar system with no peptide addition and an un-layered system (0.5%, uniform agar concentration; 25 ml) with no peptide addition were used as controls. Each tube was fitted into an 8 slot Falcon tube rack which was covered in aluminum foil to minimize light exposure to the root systems. This system allowed tubes to be periodically removed for easy visual inspection. The upper level of the soft layer was below the level of the rack.
Shoot length was measured at the end of the growth period. Data obtained from analyzing root system measurements were statistically analyzed.

[4] = test system: Arabidopsis thaliana (accession Col-0); experiment: Root growth assay of Col-0 plants on standard medium supplemented with synthetic CEP peptides; format: in vivo; conditions: 12-day-old Col-0 plants, peptide at 10−6 M (1 μM), compared to untreated plants
Experimental: FIG. 8—CEP synthetic peptides decrease primary root length and lateral root density. (A) CEP peptides used in growth assays. (hyP) indicates hydroxyproline residues. (B) Alignment of CEP3, CEP5 and CEP9.1 peptide domains. (C) Primary root length and lateral root density of 12-day-old Col-0 plants grown on standard medium supplemented with 1 μM of the specified peptide. n≥7 plants. (D) Differential biological activity of CEP3, CEP5 and CEP9 peptide variants. The histogram indicates the lowest concentration at which a peptide elicited a significant reduction in primary root length compared to untreated plants (P<0.05). Col-0 plants were grown vertically for 12 days on standard medium supplemented with peptide concentrations ranging from 10^−6 M to 10^−12 M. n=7-16 plants. Error bars show standard error. *P≤0.05; **P≤0.01; *** P≤0.001 (two-sample t-test, Genstat).
For root assays, seeds of Arabidopsis thaliana (accession Col-0) were surface sterilized with 6.25% bleach, stratified for 3-4 days and sown onto plates. […] Plates were imaged using an Epson scanner and images were analysed using the SmartRoot plugin (Lobet et al., 2011) in ImageJ. Statistically significant differences were determined using a two-sample t-test (Genstat 14th edition) where appropriate. […]

| Substance | root phenotype (periodic bumps resembling galls) [1] | number of leaves per plant on average [3] [leaves] | shoot length [3] | further results |
| --- | --- | --- | --- | --- |
| AFQHypTTPGNSHypGVGH and EFQKTNPGHSHypGVGH [MtCEP1] | periodic bumps induced | – | – | – |
| AFR[Hyp]TAPGHS[Hyp]GVGH [MhCEP2] | periodic bumps induced | – | – | – |
| CEP1: synthetic 15 amino acid CEP1 peptide of Ohyama et al., 2008 (DFRPTNPGNSPGVGH; ends and bridges not checked; listed as Arabidopsis thaliana) | – | – | – | root growth [2]: inhibited root growth |
| DFRPTTPGHSPGIGH [AtCEP5] | – | 4.9 | significantly longer shoots | – |
| DFVPTSPGNSPGVGH [CEP9.1, synthetic non-hydroxylated CEP9.1 peptide domain] | – | – | – | lateral root density [4]: reduced lateral root density; primary root length [4]: much weaker effect on primary root length |
| DSTTPGHSPSIGH (also: hydroxyproline predicted at Pro5 and Pro9, not given here for synthetic peptide) [BdCEP1, BdCEP1 peptide synthesized missing the first two amino acids, designated BdCEP3a] | – | 4.7 | significantly longer shoots | – |
